Legend:
[1] = Gastrointestinal Symptom Rating Scale (GSRS); type: in vivo, human; conditions: for Abdom Pain (combined score of GSRS 1, GSRS4, and GSRS5) / Diarrhea (combined score of GSRS11 and GSRS14) / GSRS1 Pain and discomfort in upper abdomen or stomach / GSRS2 Heartburn / GSRS3 Acid reflux / GSRS4 Hunger pangs / GSRS5 Nausea / GSRS6 Stomach rumbling / GSRS7 Stomach bloating / GSRS8 Burping / GSRS9 Passing gas or flatulence / GSRS11 Diarrhea / GSRS14 Urgent need to have a bowel movement / GSRS15 Sensation of not completely emptying the bowels / Ingestion (combined score of GSRS6, GSRS7, GSRS8, and GSRS9) / Reflux (combined score of GSRS2 and GSRS3) / Constipation (combined score of GSRS10, GSRS13, and GSRS14), 'Constipation Syndrome' / GSRS10 Constipation / GSRS13 Hard stools: GLU condition, mean ± SD; for Constipation (combined score of GSRS10, GSRS13, and GSRS14), 'Constipation Syndrome' / GSRS10 Constipation / GSRS13 Hard stools: hydrochloride
Source text: The remainder of the study consisted of two identical patterns of testing with the exception of what supplementation protocol was followed. FIG. 1 provides a flowchart of the experimental design. Prior to each visit, food and physical activity logs were completed encompassing four days prior to the scheduled laboratory visit. The four days consisted of two weekend days and two weekdays. Each participant reported to the laboratory for a baseline measurement of height, weight, heart rate, and blood pressure. During this visit, participants completed the Bristol Stool Chart and Gastrointestinal Symptom Rating Scale (GSRS) to assess bowel habits and potential gastrointestinal symptoms. Participants were given instructions on how to collect a stool sample and were instructed to do so within 24 hours of each planned study visit. At the completion of this study visit, participants were provided with their first assigned supplement (either PLA [placebo] or GLU [glucosamine]) and instructed to begin supplementation 21 days prior to their second visit. Participants were instructed to collect their second stool sample on the day of their final supplementation dose. On the morning of their second study visit, participants reported to the laboratory after following identical pre-study instructions as previous visits (i.e., fasting, abstention from caffeine and exercise). Study participants again completed assessments for height, weight, heart rate, blood pressure, and questionnaires regarding their bowel habits and gastrointestinal symptoms while also providing their second stool sample and turning in completed food and activity logs. A washout period lasting a minimum of 14 days and a maximum of 21 days separated each phase of the crossover as shown in FIG. 1. […] In a double-blind manner, a glucosamine supplement (GLU) or a maltodextrin placebo (PLA) was distributed in identical opaque capsules to all participants. On a daily basis, participants were instructed to ingest three capsules, each containing 1,000 mg of glucosamine hydrochloride (GlucosaGreen®, TSI Group Ltd. MT, USA) or a placebo (maltodextrin) identical in appearance for a total of 21 days. Each visit at the beginning of the supplementation regimen (Visits 1 and 4, respectively; See FIG. 1) occurred on or before the first day of supplementation while the final day of supplementation occurred the day before each participant's follow-up visit for that study period (Visits 2 and 4, respectively). Participants were instructed to ingest the supplement 15-30 minutes before breakfast with eight fluid ounces of cold water. In the case of a missed dose, participants were instructed to consume the missed dose as soon as possible with a meal. […] The dose of maltodextrin used in the following examples was two to five-fold lower, respectively, than these investigations. Participants completed electronic (Qualtrics, Inc.) versions of the Bristol Stool Chart and the Gastrointestinal Symptoms Rating Scale (GSRS) at four time points throughout the entire study protocol. The first two questionnaires were completed before and after the first supplementation period while the final two questionnaires were collected before and after the second supplementation period. The Bristol Stool Chart requires participants to classify their bowel movements into one of seven different types of stool. Type 1 was classified as being “Separate hard lumps, like nuts (hard to pass)”, Type 2 being “Sausage-shaped, lumpy, uncomfortable to pass”, Type 3 being “Like a sausage, with cracks on its surface”, Type 4 being “Like a sausage or snake, smooth and soft”, Type 5 being “Soft blobs with clear-cut edges, passes easily”, Type 6 being “Fluffy pieces with ragged edges, a mushy stool”, and Type 7 being “Watery, no solid pieces, entirely liquid”. The Gastrointestinal Symptoms Rating Scale (GSRS), a 15-item clinical rating scale was completed a total of four times to assess symptoms related to gastrointestinal distress during the past week. […]

Bristol Stool Chart = type: in vivo, human; conditions: for Bristol Stool: GLU condition, mean ± SD
Source text: The remainder of the study consisted of two identical patterns of testing with the exception of what supplementation protocol was followed. FIG. 1 provides a flowchart of the experimental design. Prior to each visit, food and physical activity logs were completed encompassing four days prior to the scheduled laboratory visit. The four days consisted of two weekend days and two weekdays. Each participant reported to the laboratory for a baseline measurement of height, weight, heart rate, and blood pressure. During this visit, participants completed the Bristol Stool Chart and Gastrointestinal Symptom Rating Scale (GSRS) to assess bowel habits and potential gastrointestinal symptoms. Participants were given instructions on how to collect a stool sample and were instructed to do so within 24 hours of each planned study visit. At the completion of this study visit, participants were provided with their first assigned supplement (either PLA [placebo] or GLU [glucosamine]) and instructed to begin supplementation 21 days prior to their second visit. Participants were instructed to collect their second stool sample on the day of their final supplementation dose. On the morning of their second study visit, participants reported to the laboratory after following identical pre-study instructions as previous visits (i.e., fasting, abstention from caffeine and exercise). Study participants again completed assessments for height, weight, heart rate, blood pressure, and questionnaires regarding their bowel habits and gastrointestinal symptoms while also providing their second stool sample and turning in completed food and activity logs. A washout period lasting a minimum of 14 days and a maximum of 21 days separated each phase of the crossover as shown in FIG. 1. […] In a double-blind manner, a glucosamine supplement (GLU) or a maltodextrin placebo (PLA) was distributed in identical opaque capsules to all participants. On a daily basis, participants were instructed to ingest three capsules, each containing 1,000 mg of glucosamine hydrochloride (GlucosaGreen®, TSI Group Ltd. MT, USA) or a placebo (maltodextrin) identical in appearance for a total of 21 days. Each visit at the beginning of the supplementation regimen (Visits 1 and 4, respectively; See FIG. 1) occurred on or before the first day of supplementation while the final day of supplementation occurred the day before each participant's follow-up visit for that study period (Visits 2 and 4, respectively). Participants were instructed to ingest the supplement 15-30 minutes before breakfast with eight fluid ounces of cold water. In the case of a missed dose, participants were instructed to consume the missed dose as soon as possible with a meal. […]

[2] = Post 21 days, 3 x 1,000 mg/day oral

In the case of `Cl.N[C@H]1C(O)O[C@H](CO)[C@@H](O)[C@@H]1O` (some centres unmarked) [GLU, glucosamine hydrochloride], the “Abdom Pain (combined score of GSRS 1, GSRS4, and GSRS5)” value [1, 2] is reported as 4.18 ± 1.66, the “Diarrhea (combined score of GSRS11 and GSRS14)” value [1, 2] is reported as 3.27 ± 1.56 and the “GSRS1 Pain and discomfort in upper abdomen or stomach” value [1, 2] is reported as 1.5 ± 0.7. For the same molecule, the “GSRS2 Heartburn” value [1, 2] was 1.2 ± 0.4, the “GSRS3 Acid reflux” value [1, 2] was 1.2 ± 0.4 and the “GSRS4 Hunger pangs” value [1, 2] was 1.18 ± 0.4. The “GSRS5 Nausea” value [1, 2] was 1.55 ± 1.21, the “GSRS6 Stomach rumbling” value [1, 2] was 2.2 ± 1.3 and the “GSRS7 Stomach bloating” value [1, 2] was 2.1 ± 1.22. For the same molecule, the “GSRS8 Burping” value [1, 2] was 1.2 ± 0.4, the “GSRS9 Passing gas or flatulence” value [1, 2] was 2.46 ± 1.21 and the “GSRS11 Diarrhea” value [1, 2] was 1.73 ± 1.56. For the same molecule, the “GSRS14 Urgent need to have a bowel movement” value [1, 2] was 1.55 ± 0.93, the “GSRS15 Sensation of not completely emptying the bowels” value [1, 2] was 1.09 ± 0.3 and the “Ingestion (combined score of GSRS6, GSRS7, GSRS8, and GSRS9)” value [1, 2] was 7.91 ± 2.98. The “Reflux (combined score of GSRS2 and GSRS3)” value [1, 2] was 2.36 ± 0.67, the “Constipation (combined score of GSRS10, GSRS13, and GSRS14), 'Constipation Syndrome'” value [1, 2] was 3.27±0.9 and the “GSRS10 Constipation” value [1, 2] was 1.09±0.3. The “GSRS13 Hard stools” value [1, 2] was 1.09±0.3, the “Abdom Pain (combined score of GSRS 1, GSRS4, and GSRS5)” value ([1]; Pre (baseline)) was 4.27 ± 1.68 and the “Diarrhea (combined score of GSRS11 and GSRS14)” value ([1]; Pre (baseline)) was 2.27 ± 0.9. For the same molecule, the “GSRS1 Pain and discomfort in upper abdomen or stomach” value ([1]; Pre (baseline)) was 1.2 ± 0.4, the “GSRS2 Heartburn” value ([1]; Pre (baseline)) was 1.1 ± 0.3 and the “GSRS3 Acid reflux” value ([1]; Pre (baseline)) was 1.0 ± 0.0. For the same molecule, the “GSRS4 Hunger pangs” value ([1]; Pre (baseline)) was 1.82 ± 0.98, the “GSRS5 Nausea” value ([1]; Pre (baseline)) was 1.27 ± 0.9 and the “GSRS6 Stomach rumbling” value ([1]; Pre (baseline)) was 1.5 ± 0.69. The “GSRS7 Stomach bloating” value ([1]; Pre (baseline)) was 1.9 ± 1.22, the “GSRS8 Burping” value ([1]; Pre (baseline)) was 1.2 ± 0.4 and the “GSRS9 Passing gas or flatulence” value ([1]; Pre (baseline)) was 1.82 ± 0.75. The “GSRS11 Diarrhea” value ([1]; Pre (baseline)) was 1.0 ± 0.0, the “GSRS14 Urgent need to have a bowel movement” value ([1]; Pre (baseline)) was 1.27 ± 0.9 and the “GSRS15 Sensation of not completely emptying the bowels” value ([1]; Pre (baseline)) was 1.73 ± 1.1. For the same molecule, the “Ingestion (combined score of GSRS6, GSRS7, GSRS8, and GSRS9)” value ([1]; Pre (baseline)) was 6.45 ± 2.5, the “Reflux (combined score of GSRS2 and GSRS3)” value ([1]; Pre (baseline)) was 2.09 ± 0.3 and the “Constipation (combined score of GSRS10, GSRS13, and GSRS14), 'Constipation Syndrome'” value ([1]; Pre (baseline)) was 5.09±3.45. For the same molecule, the “GSRS10 Constipation” value ([1]; Pre (baseline)) was 1.82±1.4, the “GSRS13 Hard stools” value ([1]; Pre (baseline)) was 1.55±1.04 and the “Abdom Pain combined score, %” value ([1]; PLA vs. GLU, between-group) was 4.2%. For the same molecule, the “Constipation combined score, %” value ([1]; PLA vs. GLU, between-group) was −33.3%, the “Diarrhea combined score, %” value ([1]; PLA vs. GLU, between-group) was 30.6% and the “GSRS1, %” value ([1]; PLA vs. GLU, between-group) was 31.3%. For the same molecule, the “GSRS2, %” value ([1]; PLA vs. GLU, between-group) was −0.9%, the “GSRS3, %” value ([1]; PLA vs. GLU, between-group) was 20.0% and the “GSRS4, %” value ([1]; PLA vs. GLU, between-group) was −11.3%. For the same molecule, the “GSRS5, %” value ([1]; PLA vs. GLU, between-group) was 35.4%, the “GSRS6, %” value ([1]; PLA vs. GLU, between-group) was 37.6% and the “GSRS7, %” value ([1]; PLA vs. GLU, between-group) was −30.7%. The “GSRS8, %” value ([1]; PLA vs. GLU, between-group) was −10%, the “GSRS9, %” value ([1]; PLA vs. GLU, between-group) was 8.8% and the “GSRS10, %” value ([1]; PLA vs. GLU, between-group) was −64.9%. The “GSRS11, %” value ([1]; PLA vs. GLU, between-group) was 55.0%, the “GSRS13, %” value ([1]; PLA vs. GLU, between-group) was −15.5% and the “GSRS14, %” value ([1]; PLA vs. GLU, between-group) was 13.0%. The “GSRS15, %” value ([1]; PLA vs. GLU, between-group) was −23.8%, the “Ingestion combined score, %” value ([1]; PLA vs. GLU, between-group) was −0.4% and the “Reflux combined score, %” value ([1]; PLA vs. GLU, between-group) was 8.4%. For the same molecule, the “Stomach bloating ratings (GSRS7), change from baseline” value ([1]; Post vs Pre, p=0.32) was “no changes were observed”, the “Bristol Stool” value (Bristol Stool Chart; [2]) was 3.6 ± 0.8 and the “Bristol Stool” value (Bristol Stool Chart; Pre (baseline)) was 3.3 ± 0.8. For the same molecule, the “Bristol Stool, %” value (Bristol Stool Chart; PLA vs. GLU, between-group) was −19.9% and the “Changes in Bristol Stool chart ratings within group” value (Bristol Stool Chart; Post vs Pre, p=0.10) was “no significant changes”.
